{
  "source": "patent US11007199B2",
  "about": "“Compositions and methods for ameliorating pain and reducing fever” (The Board of Supervisors of Louisiana State University and …, priority 2017, dated 2021)",
  "key": {"hepatocytes": {"system": "hepatocytes", "test": "Hepatotoxicity (LDH assay, GSH assay)", "format": "cell-based", "conditions": "FIG. 6", "procedure": "LDH assay. Using the Pierce LDH Cytotoxicity assay kit from Thermo Scientific, cells were incubated in presence of various drug compounds, followed by collection of the medium supernatant. Release of LDH was measured in 96 well plate formats. The absorbance was measured at 490 nm and 680 nm and the final result was absorbance observed at 680 nm subtracted from absorbance observed at 490 nm (A490nw-A680nm).\nGSH assay. Using the ThiolTracker Violet Glutathione Detection reagent from Molecular Probes (Invitrogen), after hepatocytes were incubated in the presence of various compounds, incubation medium was removed, cells rinsed with D-PBS conditioned medium followed by incubation with pre-warmed ThiolTracker Violet dye (working solution prepared as per manufacturer's instructions) for 30 minutes. Fluorescence was measured at the following wavelengths: excitation (404 nm) and emission (526 nm). The finalized result was expressed as relative fluorescence units (RFU), which indicates the cellular level of reduced glutathione (GSH) in intact cells.\nHepatotoxicity results for the inventive DEA salt compound are shown m FIG. 6."}, "CD-1 male mice [1]": {"system": "CD-1 male mice", "test": "Acetic acid-induced abdominal writhing assay", "format": "in vivo", "procedure": "Acetic acid-induced abdominal writhing assay. Contraction of the abdominal muscle and stretching of the hind limbs is induced as a response to intraperitoneal (ip) injection of an acetic acid solution, as described Hendershot and Forsaith, 1959. In this model of visceral pain, abdominal contractions (writhing) is induced in mice by an ip injection of 0.4% acetic acid at a dose of 10 mL/Kg, 25 min after drug administration. The number of writhes is counted for 10 min beginning 5 min after acetic acid injection.\nAll groups have been compared to vehicle and differences analyzed by one-way ANOVA followed by Sidak's multiple comparison post hoc test."}, "CD1 male mice": {"system": "CD1 male mice", "test": "Tail-flick assay", "conditions": "in vivo analgesia model, FIG. 8; per os at 40 mg/kg", "procedure": "Tail-flick assay. Analgesic effect of drugs was determined by using the reaction time (latency) of mice to thermal stimulation of the tail tip. All animals (CD1 male mice) were fasted overnight (with free access to water) and their baseline tail flick latency (seconds) was recorded twice for each mouse using an IITC Tail Flick Analgesia Meter.\nAfter measurement of baseline latency, drugs were administered per os at 40 mg/kg to animals belonging to the treatment groups. At 30 minutes post injection, tail flick latency was recorded again, twice for each mouse, to determine total change in latency. Mice were subjected to cold shock by dipping their tails into ice-cold water at 4° C.\nPercentage of maximum analgesia for each mouse were calculated with the formula, Percentage Analgesia=100*{[(Latency to tail flick after drug injection)−(Latency to tail flick at baseline)]/[(12 sec cutoff time)−(Baseline latency)]}. Data expressed as mean±SEM, n=10."}, "rats": {"system": "rats", "test": "Von Frey analgesia assay", "conditions": "in vivo analgesia model, FIG. 8; IP injection", "procedure": "Von Frey analgesia assay. Twenty rats are brought into the eVF room and allowed to acclimate to the room for 30 minutes. At the 30 minute mark, saline injections begin. 30 minutes after the saline injection, the eVF readings of the rats are taken by applying the filament of the eVF machine to the center of the bottom of the hind paws (left and right) of each rat. The filament uses a magnet to remain attached to the probe, which measures the pressure in grams applied to the filament. The pressure readout is then recorded from the transducer.\nAfter saline injections, a drug is injected (different compound each day). In the same manner as saline injections, at the 30 minute mark after each drug injection, eVF readings of each rat are taken.\nDrug Injection/Concentration: All drugs and saline were administered by intraperitoneal (IP) injection. Each injection was 1 mL/kg of body weight (i.e., 463 g rat received 0.463 mL of injection). Four doses on a logarithmic scale for ApAP w ere used. 10 mg/kg, 32 mg/kg, 100 mg/kg, and 320 mg/kg."}, "CD-1 male mice [2]": {"system": "CD-1 male mice", "test": "Baker yeast-induced hyperthermia (antipyresis)", "format": "in vivo", "conditions": "50 mg/kg bw p.o., baker's yeast-induced fever, FIG. 5", "procedure": "The antipyretic effect of the compounds was assessed utilizing baker yeast-induced hyperthermia. All animals (CD-1 male mice weighing between 45-50 g) were fasted overnight (with free access to water) and their baseline temperature was recorded using a Cole-[…] rectal thermometer probe. […] (206% […].); (Groups 5-6) DEA salt-Brewer's yeast soln. (20% w/v) (i.p.) and DEA Salt (50 mg/kg bw) (p.o.). Two hours post-injection, rectal temperatures were recorded once again, to determine total change in body temperature. Percentage Change in body temperature is calculated with the formula, Percentage Change=[(Total change in body temperature)/(Base temperature)*100]. Data is expressed as mean±SEM, n=10."}},
  "note": "“Also recorded” adds a separate entry of the source.",
  "data": [
    {"molecule": "CCNCC.O=C(CNS(=O)(=O)c1ccccc1C(=O)O)Nc1ccc(O)cc1", "note": "[DEA salt, 2-[[2-(4-hydroxyanilino)-2-oxo-ethyl]sulfamoyl]benzoate diethylammonium salt]", "values": [
      {"measurement": "hepatotoxicity versus ApAP", "setting": "hepatocytes", "result": "minimal hepatotoxicity; also recorded: decreased toxicity"},
      {"measurement": "calculated 50% effective dose (ED50) based on the writhing assay", "setting": "CD-1 male mice [1]; CD-1 male mice, per os, ip 0.4% acetic acid", "result": 10.3, "unit": "mg/kg"},
      {"measurement": "number of writhes induced by injection of acetic acid", "setting": "CD-1 male mice [1]; FIG. 8, vehicle only nearly 40", "result": "under 20"},
      {"measurement": "reducing pain versus ApAP, acetic acid-induced abdominal writhing", "setting": "CD-1 male mice [1]; in vivo analgesia model, FIG. 8", "result": "comparable to ApAP in reducing pain"},
      {"measurement": "reducing pain versus ApAP, tail flick assay", "setting": "CD1 male mice", "result": "comparable to ApAP in reducing pain"},
      {"measurement": "reducing pain versus ApAP, Von Frey assay", "setting": "rats", "result": "comparable to ApAP in reducing pain"},
      {"measurement": "antipyretic effect versus ApAP", "setting": "CD-1 male mice [2]", "result": "antipyretic effect comparable to ApAP"}
    ]}
  ]
}
